Test results: ChEMBL document CHEMBL1201862, “PubChem BioAssay data set” (2004)
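Grown in 96-well plates, cells were treated for 48 hours with each compound at five concentrations. Insufficient inhibition: endpoint recorded as highest concentration tested. GI50 = concentration required for 50% inhibition of growth.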 Activity calls are given as the source filed them. Rule as the data show it: active = GI50 up to about 1.1 µM and inactive = higher.

Columns and labels:
Test in all cases: NCI-60 cell line screen, 48 h
SN12C = tested on: SN12C
NCI/ADR-RES = tested on: NCI/ADR-RES
COLO 205 = tested on: COLO 205
DU-145 = tested on: DU-145
LOX IMVI = tested on: LOX IMVI
RPMI-8226 = tested on: RPMI-8226
HCT-15 = tested on: HCT-15
K562 = tested on: K562
SNB-19 = tested on: SNB-19
PC-3 = tested on: PC-3
CCRF-CEM = tested on: CCRF-CEM
HT-29 = tested on: HT-29
NCI-H460 = tested on: NCI-H460
SF-295 = tested on: SF-295
HL-60 = tested on: HL-60
HOP-62 = tested on: HOP-62
U-251 = tested on: U-251
MCF7 = tested on: MCF7
786-0 = tested on: 786-0
SR = tested on: SR

SMILES	GI50 (SN12C)	GI50 (NCI/ADR-RES)	GI50 (COLO 205)	GI50 (DU-145)	GI50 (LOX IMVI)	GI50 (RPMI-8226)	GI50 (HCT-15)	GI50 (K562)	GI50 (SNB-19)	GI50 (PC-3)	GI50 (CCRF-CEM)	GI50 (HT-29)	GI50 (NCI-H460)	GI50 (SF-295)	GI50 (HL-60)	GI50 (HOP-62)	GI50 (U-251)	GI50 (MCF7)	GI50 (786-0)	GI50 (SR)
c1ccc(/N=C2\c3ccsc3/C(=N/c3ccccc3)c3ccsc32)cc1	1.58 µM (inactive)	1.98 µM (inactive)	2.63 µM (inactive)	1.73 µM (inactive)	0.458 µM (active)	1.94 µM (inactive)	2.04 µM	1.83 µM (inactive)	1.98 µM (inactive)	2.16 µM (inactive)	2.97 µM (inactive)	2.67 µM (inactive)	2.01 µM (inactive)	1.7 µM (inactive)	1.61 µM (inactive)	1.63 µM (inactive)	1.91 µM (inactive)	2.62 µM (inactive)	2.75 µM (inactive)	–
CNC(=S)N/N=C/c1ccc([N+](=O)[O-])s1	> 10 µM (inactive)	> 10 µM (inactive)	1.81 µM (inactive)	> 10 µM (inactive)	> 10 µM (inactive)	> 10 µM (inactive)	> 10 µM	> 10 µM (inactive)	> 10 µM (inactive)	3.01 µM (inactive)	> 10 µM (inactive)	3.13 µM (inactive)	6.67 µM (inactive)	> 10 µM (inactive)	6.44 µM (inactive)	> 10 µM (inactive)	> 10 µM (inactive)	–	> 10 µM (inactive)	4.81 µM (inactive)
COc1ccc(-c2cc3ccccc3oc2=O)cc1OC	> 100 µM (inactive)	> 100 µM (inactive)	> 100 µM (inactive)	> 100 µM (inactive)	> 100 µM (inactive)	44.6 µM (inactive)	> 100 µM	> 100 µM (inactive)	90.6 µM (inactive)	–	> 100 µM (inactive)	> 100 µM (inactive)	–	> 100 µM (inactive)	> 100 µM (inactive)	> 100 µM (inactive)	> 100 µM (inactive)	> 100 µM (inactive)	70 µM (inactive)	> 100 µM (inactive)
CN(C)c1ccc(/C=N/N=C2\C(=O)Nc3c(Cl)cc(Cl)cc32)cc1	> 100 µM (inactive)	20.2 µM (inactive)	52.6 µM (inactive)	–	25.6 µM (inactive)	–	32.4 µM	20.6 µM (inactive)	> 100 µM (inactive)	29.5 µM (inactive)	27.8 µM (inactive)	26.1 µM (inactive)	41 µM (inactive)	32.9 µM (inactive)	28.6 µM (inactive)	39.7 µM (inactive)	79.3 µM (inactive)	46.2 µM (inactive)	45.9 µM (inactive)	6.46 µM (inactive)
O=C1c2ccccc2C2CCC1c1ccccc12 (configuration not stated)	43.8 µM (inactive)	–	19.2 µM (inactive)	–	36.3 µM (inactive)	16 µM (inactive)	30.6 µM	23.6 µM (inactive)	65 µM (inactive)	–	23.9 µM (inactive)	29.9 µM (inactive)	33.3 µM (inactive)	33.4 µM (inactive)	15 µM (inactive)	48 µM (inactive)	39.5 µM (inactive)	–	38.8 µM (inactive)	20.5 µM (inactive)
CC(C)Cc1cc(CCC(=O)Nc2ccccc2[N+](=O)[O-])nc(NC#N)n1	> 100 µM (inactive)	–	> 100 µM (inactive)	–	> 100 µM (inactive)	> 100 µM (inactive)	> 100 µM	> 100 µM (inactive)	> 100 µM (inactive)	–	> 100 µM (inactive)	> 100 µM (inactive)	> 100 µM (inactive)	> 100 µM (inactive)	> 100 µM (inactive)	> 100 µM (inactive)	> 100 µM (inactive)	–	> 100 µM (inactive)	> 100 µM (inactive)
CC(C)(C)C1=C(Br)C(C(C)(C)C)OP1(=O)O (configuration not stated)	> 100 µM (inactive)	> 100 µM (inactive)	> 100 µM (inactive)	> 100 µM (inactive)	> 100 µM (inactive)	–	> 100 µM	> 100 µM (inactive)	> 100 µM (inactive)	> 100 µM (inactive)	–	> 100 µM (inactive)	> 100 µM (inactive)	> 100 µM (inactive)	> 100 µM (inactive)	> 100 µM (inactive)	> 100 µM (inactive)	> 100 µM (inactive)	> 100 µM (inactive)	–
O=C1Cc2c([nH]c3c(Cl)cccc23)-c2ccccc2N1	> 100 µM (inactive)	–	> 100 µM (inactive)	> 100 µM (inactive)	> 100 µM (inactive)	> 100 µM (inactive)	> 100 µM	> 100 µM (inactive)	> 100 µM (inactive)	> 100 µM (inactive)	> 100 µM (inactive)	> 100 µM (inactive)	> 100 µM (inactive)	> 100 µM (inactive)	> 100 µM (inactive)	> 100 µM (inactive)	> 100 µM (inactive)	> 100 µM (inactive)	> 100 µM (inactive)	> 100 µM (inactive)
Cc1ccsc1/C=N/Nc1cc(C)c2ccccc2n1	15.2 µM (inactive)	13.9 µM (inactive)	5.92 µM (inactive)	12.6 µM (inactive)	12 µM (inactive)	3.28 µM (inactive)	11.4 µM	9.06 µM (inactive)	16.6 µM (inactive)	14.7 µM (inactive)	17.1 µM (inactive)	3.61 µM (inactive)	–	3.04 µM (inactive)	12.2 µM (inactive)	22.3 µM (inactive)	14 µM (inactive)	15.6 µM (inactive)	16.3 µM (inactive)	–
Cc1cc(C)c(C2[C@H]3C(=O)N(c4ccc(Cc5ccc(N6C(=O)[C@@H]7ON(c8ccccc8)C(c8c(C)cc(C)cc8C)[C@@H]7C6=O)cc5)cc4)C(=O)[C@H]3ON2c2ccccc2)c(C)c1 (some centres not stated)	> 100 µM (inactive)	–	> 100 µM (inactive)	–	> 100 µM (inactive)	> 100 µM (inactive)	> 100 µM	> 100 µM (inactive)	> 100 µM (inactive)	–	> 100 µM (inactive)	> 100 µM (inactive)	> 100 µM (inactive)	> 100 µM (inactive)	46.3 µM (inactive)	> 100 µM (inactive)	> 100 µM (inactive)	–	> 100 µM (inactive)	> 100 µM (inactive)
CN1C(=O)C(=O)c2cc3c(c4c2c1cc1ccccc14)OCO3 [CEPHARADIONE A]	37.7 µM (inactive)	–	28.7 µM (inactive)	–	23 µM (inactive)	25.1 µM (inactive)	36.1 µM	27.2 µM (inactive)	47.4 µM (inactive)	–	8.95 µM (inactive)	34.4 µM (inactive)	26.7 µM (inactive)	38.7 µM (inactive)	38.5 µM (inactive)	41.2 µM (inactive)	43.4 µM (inactive)	–	7.23 µM (inactive)	7.5 µM (inactive)
O=[N+]([O-])c1cc2c([N+](=O)[O-])cccc2o1	12.1 µM (inactive)	14.3 µM (inactive)	4.57 µM (inactive)	14.7 µM (inactive)	3.66 µM (inactive)	2.85 µM (inactive)	4.59 µM	–	19.2 µM (inactive)	12.4 µM (inactive)	2.48 µM (inactive)	4.09 µM (inactive)	> 100 µM (inactive)	22.9 µM (inactive)	–	18.5 µM (inactive)	18.4 µM (inactive)	3.5 µM (inactive)	2.17 µM (inactive)	–
C[C@]1(CO)CCC[C@@]2(C)C1CC[C@H]1CC3C[C@]12CC[C@]3(C)O (some centres not stated)	> 100 µM (inactive)	–	36.4 µM (inactive)	–	90.6 µM (inactive)	17.3 µM (inactive)	> 100 µM	11.5 µM (inactive)	> 100 µM (inactive)	–	0.213 µM (active)	> 100 µM (inactive)	19 µM (inactive)	> 100 µM (inactive)	5.22 µM (inactive)	39.8 µM (inactive)	42.1 µM (inactive)	–	> 100 µM (inactive)	83.2 µM (inactive)
C[C@@H]1[C@H](O)CC2=C(CC[C@@H](O)C2(C)C)[C@@]1(CO)CCc1ccoc1	> 50 µM (inactive)	> 50 µM (inactive)	> 50 µM (inactive)	–	> 50 µM (inactive)	–	> 50 µM	> 50 µM (inactive)	> 50 µM (inactive)	46.3 µM (inactive)	29.4 µM (inactive)	> 50 µM (inactive)	> 50 µM (inactive)	> 50 µM (inactive)	15.8 µM (inactive)	> 50 µM (inactive)	> 50 µM (inactive)	> 50 µM (inactive)	> 50 µM (inactive)	25.1 µM (inactive)
Cc1nc(N)sc1C(=O)/C=C\c1ccc2c(c1)OCO2	> 100 µM (inactive)	–	> 100 µM (inactive)	–	> 100 µM (inactive)	> 100 µM (inactive)	> 100 µM	> 100 µM (inactive)	> 100 µM (inactive)	–	> 100 µM (inactive)	> 100 µM (inactive)	> 100 µM (inactive)	> 100 µM (inactive)	> 100 µM (inactive)	> 100 µM (inactive)	> 100 µM (inactive)	–	> 100 µM (inactive)	> 100 µM (inactive)
O=S1(=O)C(c2ccccc2)=C(O)c2ccccc21	–	> 100 µM (inactive)	> 100 µM (inactive)	> 100 µM (inactive)	> 100 µM (inactive)	> 100 µM (inactive)	> 100 µM	> 100 µM (inactive)	> 100 µM (inactive)	> 100 µM (inactive)	> 100 µM (inactive)	> 100 µM (inactive)	> 100 µM (inactive)	> 100 µM (inactive)	> 100 µM (inactive)	> 100 µM (inactive)	> 100 µM (inactive)	> 100 µM (inactive)	> 100 µM (inactive)	–
